Measured values from patent publication US20210196652A1, “USE OF CYSTEAMINE AND DERIVATIVES THEREOF TO TREAT DYSFUNCTIONAL TEAR SYNDROME (DTS)” (MESHABERASE, LLC, priority 2019, published 2021).

Experiments:
[1] = Self-treatment of dysfunctional tear syndrome patients with cysteamine ocular drops: symptom diary (3-point Likert scale), weekly interviews, patient reports; assay type: in vivo, human
Source text: (§1) Sterile ocular cysteamine drops with a concentration of 0.44% were used in a dosage schedule of one drop per eye, four times per day.
(§2) Four patients were self-treated with cysteamine ocular drops as described above for 30-37 days. Patients were requested to fill out a diary sheet daily and to return weekly for follow-up. Three of the four patients filled out the diary that included a 3-point Likert scale of symptoms, number of times drops were used daily, and a space for other comments. […] Patients were tested for MMP using the INFLAMMADRY test (see Kaufman) and the Schirmer test (in which a filter paper strip is placed in the lower fornix of the eyelid to absorb tears), with and without anesthesia, using Oxford grading (observation of conjunctiva and cornea using BIO-GLO fluorescein strips) at entry, and Schirmer with and without anesthesia on the final visit.
Four patients (Patients 1, 2, 3, and 4) were tested. […] Among the patients testing MMP-positive, there was an improvement in Likert-scale and other comments. […] Patients 1 and 3 returned for 4 weekly visits; Patient 2 returned for 5 weekly visits.
Patient 4 was not tested for MMP, but presented with symptoms of DTS, including years of pain and poor response to other treatments. On the theory the MMP is involved or a causative factor in recurrent epithelial erosion and dry eye, they were treated using the same regimen noted above for Patients 1, 2, and 3. Following treatment, Patient 4 reports being “cured,” and is apparently free of significant symptoms.

[2] = administered for conditions such as cystinosis; available cysteamine products; cited from earlier work
[3] = tested on: intracellular cystine levels in circulating leukocytes; conditions: cited from earlier work
[4] = Schirmer test (filter paper strip in lower fornix) in treated DTS patients; assay type: in vivo, human; conditions: MMP-positive patients (Patients 1 and 3)
Source text: as §1, §2

[5] = cited from earlier work
[6] = children with cystinosis, enteral administration

**Q.** What does the source list for `NCCS` [cysteamine, Cysteamine (HS—CH2—CH—2—NH2)]?
**A.** objective and subjective symptoms of Dry Eye Disease (DTS, dry eye, keratitis sicca) ([1]; MMP positive patients, 0.44% drops, one drop per eye, four times per day): decreases; Likert-scale (3-point scale of symptoms) and other diary comments ([1]; MMP-positive patients (Patients 1 and 3), 0.44% drops four times per day, 30-37 days): improvement; symptoms reported at interview during each weekly visit ([1]; MMP-positive patients (Patients 1 and 3), FIGS. 1 and 2): changes in symptoms indicative of improvement; need for artificial tears after starting treatment ([1]; Patient 2, MMP-negative): able to go without artificial tears for a majority of the four weeks; 3-point Likert scale of symptoms ([1]; Patient 2, MMP-negative, no objective findings of DTS): did not report changes; patient-reported outcome following treatment ([1]; Patient 4, not tested for MMP, recurrent epithelial erosion and dry eye, same regimen): cured; ocular adverse effects [2]: slinging and stippling erosion of the cornea; intracellular cystine levels in circulating leukocytes ([3]; Dohil et al. 2006): lowering of intracellular cystine levels; lowering of leukocyte cystine levels [3, 6]: prolonged efficacy; plasma cysteamine levels [3, 6]: increased plasma cysteamine levels; Schirmer tests at the end of the study [4]: improvement in Schirmer tests; unpleasant side effects ([5]; high systemic dosing levels and frequencies, CYSTAGON package insert): gastrointestinal distress and body odor; metabolism and clearance from the body ([5]; systemic administration): converted to taurine in a matter of hours
